Assay results: US20140255392A1 (BAYER INTELLECTUAL PROPERTY GMBH, priority 2011, published 2014)
pIC50: −log10 of the molar value.

Molecular target: T1, human kinase Mps-1 (Homo sapiens, UniProt P33981)
T1 construct: N-terminally GST-tagged human full length recombinant Mps-1 kinase; GST (N); purchased Invitrogen, Karslruhe, Germany PV4071
T1 sequence (P33981 1-857): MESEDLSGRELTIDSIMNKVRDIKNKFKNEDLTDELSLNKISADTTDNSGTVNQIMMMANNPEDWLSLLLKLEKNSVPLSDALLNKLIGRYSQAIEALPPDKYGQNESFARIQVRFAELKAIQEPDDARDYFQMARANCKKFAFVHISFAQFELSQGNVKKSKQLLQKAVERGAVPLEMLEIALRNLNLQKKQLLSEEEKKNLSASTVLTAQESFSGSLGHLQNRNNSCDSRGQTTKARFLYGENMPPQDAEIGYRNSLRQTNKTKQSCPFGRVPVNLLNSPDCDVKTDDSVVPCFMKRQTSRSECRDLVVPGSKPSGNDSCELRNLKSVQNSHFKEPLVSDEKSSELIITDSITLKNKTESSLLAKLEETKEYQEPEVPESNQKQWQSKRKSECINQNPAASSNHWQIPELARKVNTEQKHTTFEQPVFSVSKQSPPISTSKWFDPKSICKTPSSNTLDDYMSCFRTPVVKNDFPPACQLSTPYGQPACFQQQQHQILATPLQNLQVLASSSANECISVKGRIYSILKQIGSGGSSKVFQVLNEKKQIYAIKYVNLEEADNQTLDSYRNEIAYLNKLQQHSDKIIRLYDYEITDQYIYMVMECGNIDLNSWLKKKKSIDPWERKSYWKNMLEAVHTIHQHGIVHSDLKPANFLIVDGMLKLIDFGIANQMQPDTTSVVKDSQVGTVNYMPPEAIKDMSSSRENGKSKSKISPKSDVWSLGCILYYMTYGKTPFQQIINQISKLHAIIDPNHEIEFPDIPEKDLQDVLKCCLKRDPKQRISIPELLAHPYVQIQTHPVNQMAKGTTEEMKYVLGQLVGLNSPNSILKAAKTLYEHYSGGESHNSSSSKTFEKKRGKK
Experiment: Mps-1 kinase assay (TR-FRET)
Assay type: biochemical
Conditions: N-terminally GST-tagged human full length recombinant Mps-1; 10 μM ATP; 1 μM peptide substrate; 60 min at 22° C.
Summary of the method: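 GST-tagged full-length recombinant Mps-1 at about 1 nM final, adjusted per lot for linear range, phosphorylated a biotinylated peptide. Product bound Eu-anti-phospho(Ser/Thr) antibody over 1 h at 22° C and was read by TR-FRET to streptavidin-XLent. Compounds scored for kinase inhibition.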

| pIC50 | SMILES |
| --- | --- |
| 7.95 | Cc1cc(-c2cnc3c(NCCC(F)(F)F)cc(Oc4cccc(Cl)c4)cn23)ccc1C(=O)NC1(C)CC1 [Example 36, 4-{6-(3-chlorophenoxy)-8-[(3,3,3-trifluoropropyl)amino]imidazo[1,2-a]pyridin-3-yl}-2-methyl-N-(1-methylcyclopropyl)benzamide] |
| 7.64 | Cc1cc(-c2cnc3c(NCCC(F)(F)F)cc(Oc4cccc(Cl)c4)cn23)ccc1C(=O)NC1(C#N)CC1 [Example 37, 4-{6-(3-chlorophenoxy)-8-[(3,3,3-trifluoropropyl)amino]imidazo[1,2-a]pyridin-3-yl}-N-(1-cyanocyclopropyl)-2-methylbenzamide] |
| 9.40 | COc1ccc(Oc2cc(NCCC(F)(F)F)c3ncc(-c4ccc(C(=O)NC5CC5)c(C)c4)n3c2)cc1F [Example 42, N-cyclopropyl-4-{6-(3-fluoro-4-methoxyphenoxy)-8-[(3,3,3-trifluoroprorwl)amino]imidazo[1,2-a]pyridin-3-yl}-2-methylbenzamide] |
| 8.12 | Cc1ccc(F)cc1Oc1cc(NCCC(F)(F)F)c2ncc(-c3ccc(C(=O)NC4CCC4)c(C)c3)n2c1 [Example 47, N-cyclobutyl-4-{6-(5-fluoro-2-methylphenoxy)-8-[(3,3,3-trifluoropropyl)amino]imidazo[1,2-a]pyridin-3-yl}-2-methylbenzamide] |
| 7.01 | Cc1cc(-c2cnc3c(NCCC(F)(F)F)cc(Oc4cccc(F)c4)cn23)ccc1C(=O)NC1(C2CC2)CC1 [Example 49, N-[1,1′-bi(cyclopropyl)-1-0]-4-{6-(3-fluorophenoxy)-8-[(3,3,3-trifluoropropyl)amino]imidazo[1,2-a]pyridin-3-yl}-2-methylbenzamide] |
| 8.14 | Cc1cc(-c2cnc3c(NCCC(F)(F)F)cc(Oc4cccc(F)c4)cn23)ccc1C(=O)NC1(CO)CC1 [Example 50, 4-{6-(3-Fluorophenoxy)-8-[(3,3,3-trifluoropropyl)amino]imidazo[1,2-a]pyridin-3-yl}-N-[1-(hydroxymethyl)cyclopropyl]-2-methylbenzamide] |
| 9.05 | COc1cccc(Oc2cc(NCCC(F)(F)F)c3ncc(-c4ccc(C(=O)NC5CC5)c(C)c4)n3c2)c1 [Example 52, N-cyclopropyl-4-{6-(3-methoxyphenoxy)-8-[(3,3,3-trifluoropropyl)amino]imidazo[1,2-a]pyridin-3-yl}-2-methylbenzamide] |
| 7.71 | COc1cccc(Oc2cc(NCCC(F)(F)F)c3ncc(-c4ccc(C(=O)NC5(C#N)CC5)c(C)c4)n3c2)c1 [Example 53, N-(1-cyanocyclopropyl)-4-{6-(3-methoxyphenoxy)-8-[(3,3,3-trifluoropropyl)amino]imidazo[1,2-a]pyridin-3-yl}-2-methylbenzamide] |
| 7.80 | COc1cccc(Oc2cc(NCCC(F)(F)F)c3ncc(-c4ccc(C(=O)NC5(C)CC5)c(C)c4)n3c2)c1 [Example 54, 4-{6-(3-Methoxyphenoxy)-8-[(3,3,3-trifluoropropyl)amino]imidazo[1,2-a]pyridin-3-yl}-2-methyl-N-(1-methylcyclopropyl)benzamide] |
| 8.54 | CNC(=O)c1ccc(-c2cnc3c(NCCC(F)(F)F)cc(Oc4cccc(OC)c4)cn23)cc1C [Example 55, 4-{6-(3-Methoxyphenoxy)-8-[(3,3,3-trifluoropropyl)amino]imidazo[1,2-a]pyridin-3-yl}-N,2-dimethylbenzamide] |
| 8.11 | CCNC(=O)c1ccc(-c2cnc3c(NCCC(F)(F)F)cc(Oc4cccc(OC)c4)cn23)cc1C [Example 56, N-ethyl-4-{6-(3-methoxyphenoxy)-8-[(3,3,3-trifluoropropyl)amino]imidazo[1,2-a]pyridin-3-yl}-2-methylbenzamide] |
| 7.90 | Cc1cc(-c2cnc3c(NCCC(F)(F)F)cc(Oc4ccccc4)cn23)ccc1C(=O)NC1(C#N)CC1 [Example 57, N-(1-cyanocyclopropyl)-2-methyl-4-{6-phenoxy-8-[(3,3,3-trifluoropropyl)amino]imidazo[1,2-a]pyridin-3-yl}benzamide] |
| 8.24 | Cc1cc(-c2cnc3c(NCCC(F)(F)F)cc(Oc4ccccc4)cn23)ccc1C(=O)NC1(C)CC1 [Example 58, 2-Methyl-N-(1-methylcyclopropyl)-4-{6-phenoxy-8-[(3,3,3-trifluoropropyl)amino]imidazo[1,2-a]pyridin-3-yl}benzamide] |
| 8.82 | CNC(=O)c1ccc(-c2cnc3c(NCCC(F)(F)F)cc(Oc4ccccc4)cn23)cc1C [Example 59, N,2-dimethyl-4-{6-phenoxy-8-[(3,3,3-trifluoropropyl)amino]imidazo[1,2-a]pyridin-3-yl}benzamide] |
| 8.64 | CCNC(=O)c1ccc(-c2cnc3c(NCCC(F)(F)F)cc(Oc4ccccc4)cn23)cc1C [Example 60, N-ethyl-2-methyl-4-{6-phenoxy-8-[(3,3,3-trifluoropropyl)amino]imidazo[1,2-a]pyridin-3-yl}benzamide] |
| 7.31 | Cc1ccc(F)cc1Oc1cc(NCCC(F)(F)F)c2ncc(-c3ccc(C(=O)NC4(C5CC5)CC4)c(C)c3)n2c1 [Example 62, N-[1′,1′-bi(cyclopropyl)-1-yl]-4-{6-(5-fluoro-2-methylphenoxy)-8-[(3,3,3-trifluoropropyl)amino]imidazo[1,2-a]pyridin-3-yl}-2-methylbenzamide] |
| 7.22 | Cc1ccc(F)cc1Oc1cc(NCCC(F)(F)F)c2ncc(-c3ccc(C(=O)NC4(C#N)CCC4)c(C)c3)n2c1 [Example 63, N-(1-cyanocyclobutyl)-4-{6-(5-fluoro-2-methylphenoxy)-8-[(3,3,3-trifluoropropyl)amino]imidazor-1,2-aliwridin-3-yl}-2-methylbenzamide] |
| 8.07 | Cc1cc(-c2cnc3c(NCCC(F)(F)F)cc(Oc4ccc(OC(F)(F)F)cc4)cn23)ccc1C(=O)NC1CC1 [Example 64, N-cyclopropyl-2-methyl-4-{6-[4-(trifluoromethoxy)phenoxy]-8-[(3,3,3-trifluoropropyl)amino]imidazo[1,2-a]pyridin-3-yl}benzamide] |
| 6.88 | Cc1cc(-c2cnc3c(NCCC(F)(F)F)cc(Oc4ccc(OC(F)(F)F)cc4)cn23)ccc1C(=O)NC1(C#N)CC1 [Example 65, N-(1-cyanocyclopropyl)-2-methyl-4-{6-[4-(trifluoromethoxy)phenoxy]-8-[(3,3,3-trifluoropropyl)amino]imidazo[1,2-a]pyridin-3-yl}benzamide] |
| 6.79 | Cc1cc(-c2cnc3c(NCCC(F)(F)F)cc(Oc4ccc(OC(F)(F)F)cc4)cn23)ccc1C(=O)NC1(C)CC1 [Example 66, 2-Methyl-N-(1-methylcyclopropyl)-4-{6-[4-(trifluoromethoxy)phenoxy]-8-[(3,3,3-trifluoropropyl)amino]imidazo[1,2-a]pyridin-3-yl}benzamide] |
| 7.14 | CNC(=O)c1ccc(-c2cnc3c(NCCC(F)(F)F)cc(Oc4ccc(OC(F)(F)F)cc4)cn23)cc1C [Example 67, N,2-dimethyl-4-{6-[4-(trifluoromethoxy)phenoxy]-8-[(3,3,3-trifluoropropyl)amino]imidazo[1,2-a]pyridin-3-yl}benzamide] |
| 6.91 | CCNC(=O)c1ccc(-c2cnc3c(NCCC(F)(F)F)cc(Oc4ccc(OC(F)(F)F)cc4)cn23)cc1C [Example 68, N-ethyl-2-methyl-4-{6-[4-(trifluoromethoxy)phenoxy]-8-[(3,3,3-trifluoropropyl)amino]imidazo[1,2-a]pyridin-3-yl}benzamide] |
| 9.00 | COc1ccc(Oc2cc(NCCC(F)(F)F)c3ncc(-c4ccc(C(=O)NC5CC5)c(C)c4)n3c2)c(F)c1 [Example 69, N-cyclopropyl-4-{6-(2-fluoro-4-methoxyphenoxy)-8-[(3,3,3-trifluoropropyl)amino]imidazo[1,2-a]pyridin-3-yl}-2-methylbenzamide] |
| 8.42 | Cc1cc(-c2cnc3c(NCCC(F)(F)F)cc(Oc4cccc(F)c4F)cn23)ccc1C(=O)NC1(C#N)CC1 [Example 70, N-(1-cyanocyclopropyl)-4-{6-(2,3-difluorophenoxy)-8-[(3,3,3-trifluoropropyl)amino]imidazo[1,2-a]pyridin-3-yl}-2-methylbenzamide] |
| 8.74 | Cc1cc(-c2cnc3c(NCCC(F)(F)F)cc(Oc4cccc(F)c4F)cn23)ccc1C(=O)NC1(C)CC1 [Example 71, 4-{6-(2,3-Difluorophenoxy)-8-[(3,3,3-trifluoropropyl)amino]imidazo[1,2-a]pyridin-3-yl}-2-methyl-N-(1-methylcyclopropyl)benzamide] |
| 9.22 | CNC(=O)c1ccc(-c2cnc3c(NCCC(F)(F)F)cc(Oc4cccc(F)c4F)cn23)cc1C [Example 72, 4-{6-(2,3-Difluorophenoxy)-8-[(3,3,3-trifluoropropyl)amino]imidazo[1,2-a]pyridin-3-yl}-N,2-dimethylbenzamide] |
